Measured values as given in patent US7589104B2, “Tricyclic-bridged piperidinyline derivatives as §-opioid modulators” (Janssen Pharmaceutica NV, priority 2004, dated 2009).
Read-outs that look alike come from different tables or passages of the source.

How the values were obtained:
delta opioid receptor = biological target: T1, delta opioid receptor (Rattus norvegicus, UniProt P33533); assay: Rat Brain Delta Opioid Receptor Binding Assay
T1 construct: from tissue; host or cells: forebrain of male Wistar rats (Charles River)
T1 sequence (P33533 whole entry): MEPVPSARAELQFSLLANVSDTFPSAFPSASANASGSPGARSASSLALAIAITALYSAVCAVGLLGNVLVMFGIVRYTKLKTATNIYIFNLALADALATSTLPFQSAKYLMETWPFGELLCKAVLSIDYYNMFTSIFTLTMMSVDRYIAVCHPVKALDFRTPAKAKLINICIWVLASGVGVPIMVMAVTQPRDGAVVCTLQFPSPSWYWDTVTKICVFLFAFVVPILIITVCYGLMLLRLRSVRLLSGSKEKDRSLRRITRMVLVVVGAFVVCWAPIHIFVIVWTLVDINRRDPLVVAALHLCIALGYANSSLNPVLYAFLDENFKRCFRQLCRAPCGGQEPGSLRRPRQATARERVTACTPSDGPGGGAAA

mu opioid receptor = biological target: T2, mu opioid receptor (Rattus norvegicus, UniProt P33535); assay: Rat Brain Mu Opioid Receptor Binding Assay
T2 construct: Following incubation with the mu selective peptide ligand, ˜0.8 nM [^3H]DAMGO; from tissue; host or cells: forebrain of male Wistar rats (Charles River)
T2 sequence (P33535 whole entry): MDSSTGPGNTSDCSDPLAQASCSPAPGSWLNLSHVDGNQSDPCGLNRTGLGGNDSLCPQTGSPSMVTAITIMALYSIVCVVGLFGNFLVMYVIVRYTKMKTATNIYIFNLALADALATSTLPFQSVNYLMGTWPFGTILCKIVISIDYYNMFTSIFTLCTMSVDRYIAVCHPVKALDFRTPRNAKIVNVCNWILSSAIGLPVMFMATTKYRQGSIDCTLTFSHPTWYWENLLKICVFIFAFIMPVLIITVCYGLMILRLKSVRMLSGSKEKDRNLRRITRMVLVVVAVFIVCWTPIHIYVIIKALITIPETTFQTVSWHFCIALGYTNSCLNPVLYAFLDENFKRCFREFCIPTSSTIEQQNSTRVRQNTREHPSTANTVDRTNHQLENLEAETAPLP

O=C(c1ccc2c(c1)Oc1ccccc1C2C1CC2CCC(C1)N2)N1CCCC1 (stereo not shown) [Compound 3g, [9-(8-Aza-bicyclo[3.2.1]oct-3-yl)-9H-xanthen-3-yl]-pyrrolidin-1-yl-methanone]
Ki (delta opioid receptor): 831 nM | Ki (mu opioid receptor): 7600 nM

c1ccc(CCN2C3CCC2CC(C2c4ccccc4Oc4cc(-c5ccncc5)ccc42)C3)cc1 (stereo not shown) [Compound 24b, 8-Phenethyl-3-(3-pyridin-4-yl-9H-xanthen-9-yl)-8-aza-bicyclo[3.2.1]octane]
Ki (delta opioid receptor): 1590 nM | Ki (mu opioid receptor): 196 nM

CCN(CC)C(=O)c1ccc2c(c1)Oc1ccccc1C2C1CC2CCC(C1)N2CCc1ccccc1 (stereo not shown) [Compound 12a, 9-(8-Phenethyl-8-aza-bicyclo[3.2.1]oct-3-yl)-9H-xanthene-3-carboxylic acid diethylamide]
Ki (delta opioid receptor): 200 nM | Ki (mu opioid receptor): 667 nM

CCN(CC)C(=O)c1ccc2c(c1)Oc1ccc(Br)cc1C2C1CC2CCC(C1)N2 (stereo not shown) [Compound 7f, 9-(8-Aza-bicyclo[3.2.1]oct-3-yl)-7-bromo-9H-xanthene-3-carboxylic acid diethylamide]
Ki (delta opioid receptor): 174 nM | Ki (mu opioid receptor): 1750 nM

C=CCN1C2CCC1CC(C1c3ccccc3Oc3cc(-c4ccccc4NC(C)=O)ccc31)C2 (stereo not shown) [Compound 18b, N-{2-[9-(8-Allyl-8-aza-bicyclo[3.2.1]oct-3-yl)-9H-xanthen-3-yl]-phenyl}-acetamide]
Ki (delta opioid receptor; rat forebrain membranes, [3H]DPDPE or [3H]naltrindole, read-out: delta (Ki)): 408 nM | Ki (mu opioid receptor; rat forebrain membranes, [3H]DAMGO, read-out: mu (Ki)): 3200 nM

c1ccc(CCN2C3CCC2CC(C2c4ccccc4Oc4cc(-c5cccnc5)ccc42)C3)cc1 (stereo not shown) [Compound 12b, 8-Phenethyl-3-(3-pyridin-3-yl-9H-xanthen-9-yl)-8-aza-bicyclo[3.2.1]octane]
Ki (delta opioid receptor): 794 nM | Ki (mu opioid receptor): 293 nM

Oc1cccc2c1Oc1cc(-c3cccnc3)ccc1C2C1CC2CCC(C1)N2Cc1ccoc1 (stereo not shown) [Compound 9k, 9-(8-Furan-3-ylmethyl-8-aza-bicyclo[3.2.1]oct-3-yl)-6-pyridin-3-yl-9H-xanthen-4-ol]
Ki (delta opioid receptor): 50.3 nM

CCN(CC)C(=N)c1ccc2c(c1)Oc1ccccc1C2C1CC2CCC(C1)N2Cc1cccs1 (stereo not shown) [Compound 6m, N,N-Diethyl-9-(8-thiophen-2-ylmethyl-8-aza-bicyclo[3.2.1]oct-3-yl)-9H-xanthene-3-carboxamidine]
Ki (delta opioid receptor): 162 nM

O=c1[nH]c(-c2ccc3c(c2)Oc2ccccc2C3C2CCNCC2)no1 (stereo not shown) [Compound 2n, 3-(9-Piperidin-4-yl-9H-xanthen-3-yl)-4H-[1,2,4]oxadiazol-5-one]
Ki (delta opioid receptor): 1300 nM

Oc1cccc2c1Oc1cc(-c3cccnc3)ccc1C2C1CC2CCC(C1)N2Cc1ccccn1 (stereo not shown) [Compound 11k, 6-Pyridin-3-yl-9-(8-pyridin-2-ylmethyl-8-aza-bicyclo[3.2.1]oct-3-yl)-9H-xanthen-4-ol]
Ki (delta opioid receptor): 3.05 nM

c1ccc(CN2C3CCC2CC(C2c4ccccc4Oc4cc(-c5cccnc5)ccc42)C3)cc1 (stereo not shown) [Compound 11b, 8-Benzyl-3-(3-pyridin-3-yl-9H-xanthen-9-yl)-8-aza-bicyclo[3.2.1]octane]
Ki (delta opioid receptor): 70.4 nM | Ki (mu opioid receptor): 955 nM

CC(=O)Nc1ccccc1-c1ccc2c(c1)Oc1c(O)cccc1C2C1CC2CCC(C1)N2Cc1cccs1 (stereo not shown) [Compound 5l, N-{2-[5-Hydroxy-9-(8-thiophen-2-ylmethyl-8-aza-bicyclo[3.2.1]oct-3-yl)-9H-xanthen-3-yl]-phenyl}-acetamide]
Ki (delta opioid receptor): 6.51 nM

CC(=O)Nc1ccccc1-c1ccc2c(c1)Oc1ccccc1C2C1CC2CCC(C1)N2Cc1cccs1 (stereo not shown) [Compound 14b, N-{2-[9-(8-Thiophen-2-ylmethyl-8-aza-bicyclo[3.2.1]oct-3-yl)-9H-xanthen-3-yl]-phenyl}-acetamide]
Ki (delta opioid receptor): 78.1 nM | Ki (mu opioid receptor): 2150 nM

Oc1cccc2c1Oc1cc(-c3cccnc3)ccc1C2C1CC2CCC(C1)N2CCc1ccccc1 (stereo not shown) [Compound 13k, 9-(8-Phenethyl-8-aza-bicyclo[3.2.1]oct-3-yl)-6-pyridin-3-yl-9H-xanthen-4-ol]
Ki (delta opioid receptor): 281 nM

CCN(CC)C(=O)c1ccc2c(c1)Oc1ccccc1C2C1CC2CCC(C1)N2Cc1ccco1 (stereo not shown) [Compound 13a, 9-(8-Furan-2-ylmethyl-8-aza-bicyclo[3.2.1]oct-3-yl)-9H-xanthene-3-carboxylic acid diethylamide]
Ki (delta opioid receptor): 42 nM | Ki (mu opioid receptor): 3020 nM

CC(=O)Nc1ccccc1-c1ccc2c(c1)Oc1c(O)cccc1C2C1CC2CCC(C1)N2Cc1ccccn1 (stereo not shown) [Compound 6l, N-{2-[5-Hydroxy-9-(8-pyridin-2-ylmethyl-8-aza-bicyclo[3.2.1]oct-3-yl)-9H-xanthen-3-yl]-phenyl}-acetamide]
Ki (delta opioid receptor): 49.9 nM

COc1cccc2c1Oc1cc(Br)ccc1C2C1CC2CCC(C1)N2 (stereo not shown) [Compound 14k, 3-(3-Bromo-5-methoxy-9H-xanthen-9-yl)-8-aza-bicyclo[3.2.1]octane]
Ki (delta opioid receptor): 2880 nM | Ki (mu opioid receptor): 7380 nM

c1ccc(CN2C3CCC2CC(C2c4ccccc4Oc4cc(-c5cccnc5)ccc42)C3)nc1 (stereo not shown) [Compound 10b, 8-Pyridin-2-ylmethyl-3-(3-pyridin-3-yl-9H-xanthen-9-yl)-8-aza-bicyclo[3.2.1]octane]
Ki (delta opioid receptor): 211 nM | Ki (mu opioid receptor): 350 nM

c1cncc(-c2ccc3c(c2)Oc2ccccc2C3C2CC3CCC(C2)N3Cc2ccoc2)c1 (stereo not shown) [Compound 4b, 8-Furan-3-ylmethyl-3-(3-pyridin-3-yl-9H-xanthen-9-yl)-8-aza-bicyclo[3.2.1]-octane]
Ki (delta opioid receptor): 29.2 nM | Ki (mu opioid receptor): 556 nM

CC(=O)Nc1ccccc1-c1ccc2c(c1)Oc1c(O)cccc1C2C1CC2CCC(C1)N2Cc1ccccc1 (stereo not shown) [Compound 7l, N-{2-[9-(8-Benzyl-8-aza-bicyclo[3.2.1]oct-3-yl)-5-hydroxy-9H-xanthen-3-yl]-phenyl}-acetamide]
Ki (delta opioid receptor): 21.8 nM

c1ccc(CN2C3CCC2CC(C2c4ccccc4Oc4cc(-c5nnn[nH]5)ccc42)C3)cc1 (stereo not shown) [Compound 9j, 8-Benzyl-3-[3-(1H-tetrazol-5-yl)-9H-xanthen-9-yl]-8-aza-bicyclo[3.2.1]octane]
Ki (delta opioid receptor): 176 nM

c1cncc(-c2ccc3c(c2)Oc2ccccc2C3C2CC3CCC(C2)N3Cc2ncc[nH]2)c1 (stereo not shown) [Compound 26b, 8-(1H-Imidazol-2-ylmethyl)-3-(3-pyridin-3-yl-9H-xanthen-9-yl)-8-aza-bicyclo[3.2.1]octane]
Ki (delta opioid receptor): 338 nM

CCN(CC)C(=N)c1ccc2c(c1)Oc1ccccc1C2C1CC2CCC(C1)N2Cc1ccccn1 (stereo not shown) [Compound 7m, N,N-Diethyl-9-(8-pyridin-2-ylmethyl-8-aza-bicyclo[3.2.1]oct-3-yl)-9H-xanthene-3-carboxamidine]
Ki (delta opioid receptor): 17.3 nM

CCN(CC)C(=N)c1ccc2c(c1)Oc1ccccc1C2C1CC2CCC(C1)N2Cc1ccoc1 (stereo not shown) [Compound 5m, N,N-Diethyl-9-(8-furan-3-ylmethyl-8-aza-bicyclo[3.2.1]oct-3-yl)-9H-xanthene-3-carboxamidine]
Ki (delta opioid receptor): 234 nM

CC(=O)Nc1ccccc1-c1ccc2c(c1)Oc1c(O)cccc1C2C1CC2CCC(C1)N2Cc1ncc[nH]1 (stereo not shown) [Compound 9l, N-(2-{5-Hydroxy-9-[8-(1H-imidazol-2-ylmethyl)-8-aza-bicyclo[3.2.1]oct-3-yl]-9H-xanthen-3-yl}-phenyl)-acetamide]
Ki (delta opioid receptor): 4.9 nM

CC(=O)Nc1ccccc1-c1ccc2c(c1)Oc1c(O)cccc1C2C1CC2CCC(C1)N2CCc1ccccc1 (stereo not shown) [Compound 8l, N-{2-[5-Hydroxy-9-(8-phenethyl-8-aza-bicyclo[3.2.1]oct-3-yl)-9H-xanthen-3-yl]-phenyl}-acetamide]
Ki (delta opioid receptor): 26.6 nM

CCN(CC)C(=N)c1ccc2c(c1)Oc1ccccc1C2C1CC2CCC(C1)N2 (stereo not shown) [Compound 4m, 9-(8-Aza-bicyclo[3.2.1]oct-3-yl)-N,N-diethyl-9H-xanthene-3-carboxamidine]
Ki (delta opioid receptor): 208 nM

O=C(c1ccc2c(c1)Oc1ccccc1C2C1CC2CCC(C1)N2)N1CCC(O)C1 (stereo not shown) [Compound 3o, [9-(8-Aza-bicyclo[3.2.1]oct-3-yl)-9H-xanthen-3-yl]-(3-hydroxy-pyrrolidin-1-yl)-methanone]
Ki (delta opioid receptor): 1210 nM

Oc1cccc2c1Oc1cc(-c3cccnc3)ccc1C2C1CC2CCC(C1)N2Cc1ccccc1 (stereo not shown) [Compound 12k, 9-(8-Benzyl-8-aza-bicyclo[3.2.1]oct-3-yl)-6-pyridin-3-yl-9H-xanthen-4-ol]
Ki (delta opioid receptor): 39.4 nM

CC(=O)Nc1ccccc1-c1ccc2c(c1)Oc1c(O)cccc1C2C1CC2CCC(C1)N2Cc1ccoc1 (stereo not shown) [Compound 4l, N-{2-[9-(8-Furan-3-ylmethyl-8-aza-bicyclo[3.2.1]oct-3-yl)-5-hydroxy-9H-xanthen-3-yl]-phenyl}-acetamide]
Ki (delta opioid receptor): 22.2 nM

c1ccc(CN2C3CCC2CC(C2c4ccccc4Oc4cc(-c5nnn[nH]5)ccc42)C3)nc1 (stereo not shown) [Compound 8j, 8-Pyridin-2-ylmethyl-3-[3-(1H-tetrazol-5-yl)-9H-xanthen-9-yl]-8-aza-bicyclo[3.2.1]octane]
Ki (delta opioid receptor): 178 nM

c1ccc(CCN2C3CCC2CC(C2c4ccccc4Oc4cc(-c5nnn[nH]5)ccc42)C3)cc1 (stereo not shown) [Compound 10j, 8-Phenethyl-3-[3-(1H-tetrazol-5-yl)-9H-xanthen-9-yl]-8-aza-bicyclo[3.2.1]octane]
Ki (delta opioid receptor): 1150 nM

c1ccc2c(c1)Oc1cc(-c3nnn[nH]3)ccc1C2C1CC2CCC(C1)N2Cc1ccoc1 (stereo not shown) [Compound 6j, 8-Furan-3-ylmethyl-3-[3-(1H-tetrazol-5-yl)-9H-xanthen-9-yl]-8-aza-bicyclo[3.2.1]octane]
Ki (delta opioid receptor): 20.6 nM

CCN(CC)C(=N)c1ccc2c(c1)Oc1ccccc1C2C1CC2CCC(C1)N2Cc1ccccc1 (stereo not shown) [Compound 8m, 9-(8-Benzyl-8-aza-bicyclo[3.2.1]oct-3-yl)-N,N-diethyl-9H-xanthene-3-carboxamidine]
Ki (delta opioid receptor): 349 nM

CCN(CC)C(=N)c1ccc2c(c1)Oc1ccccc1C2C1CC2CCC(C1)N2CCc1ccccc1 (stereo not shown) [Compound 9m, N,N-Diethyl-9-(8-phenethyl-8-aza-bicyclo[3.2.1]oct-3-yl)-9H-xanthene-3-carboxamidine]
Ki (delta opioid receptor): 903 nM

Oc1cccc2c1Oc1cc(-c3cccnc3)ccc1C2C1CC2CCC(C1)N2Cc1cccs1 (stereo not shown) [Compound 10k, 6-Pyridin-3-yl-9-(8-thiophen-2-ylmethyl-8-aza-bicyclo[3.2.1]oct-3-yl)-9H-xanthen-4-ol]
Ki (delta opioid receptor): 45.2 nM

c1csc(CN2C3CCC2CC(C2c4ccccc4Oc4cc(-c5nnn[nH]5)ccc42)C3)c1 (stereo not shown) [Compound 7j, 3-[3-(1H-Tetrazol-5-yl)-9H-xanthen-9-yl]-8-thiophen-2-ylmethyl-8-aza-bicyclo[3.2.1]octane]
Ki (delta opioid receptor): 13.8 nM
